{"source": "paper PMC6934184", "about": "“Selective DNA-PKcs inhibition extends the therapeutic index of localized radiotherapy and chemotherapy” (The Journal of Clinical Investigation, 2019)", "molecular_target": "T1, LIMK1 (Homo sapiens, UniProt P53667)", "T1 construct": "purchased Thermo Fisher Scientific (Life Technologies) SelectScreen", "T1 sequence (P53667 whole entry)": "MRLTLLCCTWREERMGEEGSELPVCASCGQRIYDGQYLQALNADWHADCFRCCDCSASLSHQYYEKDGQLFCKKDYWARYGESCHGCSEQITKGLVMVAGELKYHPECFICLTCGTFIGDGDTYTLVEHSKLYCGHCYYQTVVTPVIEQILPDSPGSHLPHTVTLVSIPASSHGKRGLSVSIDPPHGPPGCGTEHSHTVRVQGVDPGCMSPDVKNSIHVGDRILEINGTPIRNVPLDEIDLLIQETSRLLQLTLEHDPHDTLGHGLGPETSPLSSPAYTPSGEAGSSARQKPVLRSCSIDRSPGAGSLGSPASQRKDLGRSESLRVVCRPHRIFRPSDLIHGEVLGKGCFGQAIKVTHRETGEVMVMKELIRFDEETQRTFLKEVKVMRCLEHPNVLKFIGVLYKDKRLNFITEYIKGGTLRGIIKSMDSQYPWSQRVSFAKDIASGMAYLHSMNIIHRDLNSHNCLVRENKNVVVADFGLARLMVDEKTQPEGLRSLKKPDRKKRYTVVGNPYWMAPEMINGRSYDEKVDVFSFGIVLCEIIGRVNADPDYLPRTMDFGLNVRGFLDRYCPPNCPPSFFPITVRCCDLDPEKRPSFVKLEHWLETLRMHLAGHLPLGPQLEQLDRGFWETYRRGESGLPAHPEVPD", "assay": "SelectScreen LanthaScreen", "assay_type": "binding", "conditions": "read-out: % displacement", "summary_of_the_method": "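SelectScreen broad panel; activity (Z'LYTE, Adapta) plus binding formats. ATP: Km app for CSF1R Z'LYTE; 10 for CAMK1 Adapta. Readout = % per kinase.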", "data": [{"smiles": "CN(C(=O)CN1CCOCC1)c1ccc2sc3c(-c4cccc5c(=O)cc(N6CC7CCC(C6)O7)oc45)cccc3c2c1", "note": "[NU5455]", "values": [{"measurement": "inhibition at 1 µM", "value": -1.7, "unit": "%"}]}]}
